Experimental data reported in patent US10647669B2, “Composition containing lutein/lutein ester and applications thereof” (priority 2016, dated 2020).

Assay: Effect of pH on the stability of lutein/lutein ester (absorbance of acetone aqueous solutions)
Format: physicochemical
Settings: for Absorbance value: acetone aqueous solution; for Retention: after placing for 96 h at pH 1.5; for Change of absorbance values: under strong acid conditions
Protocol: Effect of pH on the Stability of Lutein/Lutein Ester The acetone aqueous solutions of lutein and lutein ester with pH 1.5 and pH 3 were prepared respectively, and the absorbance values at different time period are shown as follows: […]

**Q.** Which results are given for `CC1=C[C@H](O)CC(C)(C)[C@H]1/C=C/C(C)=C/C=C/C(C)=C/C=C/C=C(C)/C=C/C=C(C)/C=C/C1=C(C)C[C@@H](O)CC1(C)C` [Lutein, lutein]?
**A.** Absorbance value (pH 1.5, 0 h): 0.843; Absorbance value (pH 1.5, 12 h): 0.559; Absorbance value (pH 1.5, 24 h): 0.452; Absorbance value (pH 1.5, 36 h): 0.368; Absorbance value (pH 1.5, 48 h): 0.267; Absorbance value (pH 1.5, 96 h): 0.151; Absorbance value (pH 3.0, 0 h): 0.845; Absorbance value (pH 3.0, 12 h): 0.566; Absorbance value (pH 3.0, 24 h): 0.495; Absorbance value (pH 3.0, 36 h): 0.428; Absorbance value (pH 3.0, 48 h): 0.341; Absorbance value (pH 3.0, 96 h): 0.268; Retention: 17.80%; Change of absorbance values: decrease significantly

**Q.** What does the source list for lutein ester?
**A.** Absorbance value (pH 1.5, 0 h): 0.844; Absorbance value (pH 1.5, 12 h): 0.588; Absorbance value (pH 1.5, 24 h): 0.466; Absorbance value (pH 1.5, 36 h): 0.377; Absorbance value (pH 1.5, 48 h): 0.259; Absorbance value (pH 1.5, 96 h): 0.155; Absorbance value (pH 3.0, 0 h): 0.837; Absorbance value (pH 3.0, 12 h): 0.597; Absorbance value (pH 3.0, 24 h): 0.502; Absorbance value (pH 3.0, 36 h): 0.439; Absorbance value (pH 3.0, 48 h): 0.356; Absorbance value (pH 3.0, 96 h): 0.274; Retention: 18.36%; Change of absorbance values: decrease significantly
